# Peptide text beside a SMILES is read from it.
# Conditions: 37° C., 2 hours
# Method: 10 μL of the resultant dipeptide solution was mixed with 4 μL of blood plasma or 4 μL of water, and was incubated at 37° C. for 2 hours. The mixture solution after incubation was applied to a TLC plate (manufactured by Merck Ltd.), and developed with a solution containing butanol (Kishida Chemical Co., Ltd.), acetic acid (Kishida Chemical Co., Ltd.) and water in a ratio of 2:1:1. A 1% ninhydrin solution was sprayed onto the mixture, which was then incubated at 80° C. for 5 minutes. Incidentally, the 1% ninhydrin solution was prepared by dissolving ninhydrin (Wako Pure Chemical Industries, Ltd.) in ethanol (Kishida Chemical Co., Ltd.).
row,TLC spots when mixed with water,SMILES
1,single spot alone,"CC(C)[C@H](NC(=O)[C@H](C)N)C(=O)O [Alanyl-Valine, alanyl-valine] (H-Ala-Val-OH)"
2,single spot alone,"CC[C@H](C)[C@H](NC(=O)[C@H](C)N)C(=O)O [Alanyl-Isoleucine, alanyl-isoleucine] (H-Ala-Ile-OH)"
3,single spot alone,"CC(C)C[C@H](NC(=O)[C@H](C)N)C(=O)O [Alanyl-Leucine, alanyl-leucine] (H-Ala-Leu-OH)"
